Results reported in patent US20260199505A1, “COMBINATION THERAPY COMPRISING BISPECIFIC ANTIBODIES COMPRISING AN NRP1 BINDING DOMAIN” (Pinetree Therapeutics, Inc., priority 2022, published 2026).
Where a name gives a salt, the structure may show the parent alone.

B1: Amivantamab: an EGFR×cMET bispecific antibody construct (antibody, chains of the INN, looked up, V domains shown)
VH: QVQLVESGGGVVQPGRSLRLSCAASGFTFSTYGMHWVRQAPGKGLEWVAVIWDDGSYKYYGDSVKGRFTISRDNSKNTLYLQMNSLRAEDTAVYYCARDGITMVRGVMKDYFDYWGQGTLVTVSS
VL: AIQLTQSPSSLSASVGDRVTITCRASQDISSALVWYQQKPGKAPKLLIYDASSLESGVPSRFSGSESGTDFTLTISSLQPEDFATYYCQQFNSYPLTFGGGTKVEIK
VH2: QVQLVQSGAEVKKPGASVKVSCETSGYTFTSYGISWVRQAPGHGLEWMGWISAYNGYTNYAQKLQGRVTMTTDTSTSTAYMELRSLRSDDTAVYYCARDLRGTNYFDYWGQGTLVTVSS
VL2: DIQMTQSPSSVSASVGDRVTITCRASQGISNWLAWFQHKPGKAPKLLIYAASSLLSGVPSRFSGSGSGTDFTLTISSLQPEDFATYYCQQANSFPITFGQGTRLEIK

Experiments:
H1975-HGF = H1975-HGF (HGF-overexpressing) xenograft model; type: in vivo, mouse; settings: for tumor volume over time (FIG. 6A): first set, Panitumumab 5 mg/kg, EGFR degrader 6.87 mg/kg, Amivantamab 5.05 mg/kg i.p. BIW, Osimertinib 3 mg/kg i.p. QD; for tumor volume over time (FIG. 6B): second set, Osimertinib 10 mg/kg i.p. QD, Crizotinib 20 mg/kg i.p. QD, EGFR degrader 15 mg/kg i.p. QW
Experimental: (§1) The H1975-HGF cell line was prepared by recombinantly engineering the H1975 cell line to express HGF by standard methods. Thus, the H1975-HGF xenograft model represents a dual activation model in which both the EGFR and cMET pathways are constitutively activated.

HGF/cMET pathway = HGF/cMET pathway inhibition in H1975 cells; type: cell-based; settings: data not shown
Experimental: as §1

H1975 = H1975 (Osimertinib-sensitive, parental) xenograft mouse model; type: in vivo; settings: 3 mg/kg Osimertinib
Source text: (§2) In this example, a modified version of the H1975 xenograft model was used in which the tumor cells were engineered to overexpress NRP1.

H1975-NRP1 OE = H1975-NRP1 OE (NRP1-overexpressing) xenograft model; settings: 3 mg/kg Osimertinib
Source text: as §2

H1975-OR = test: Osimertinib-resistant mouse xenograft model (H1975-OR); type: in vivo; settings: Osimertinib dose of 3 mg/kg
Source text: Panitumumab is a fully humanized anti-EGFR monoclonal antibody, which binds to EGFR and block the EGFR signaling. Osimertinib is an EGFR tyrosine kinase inhibitor.

| Molecule | tumor volume over time (FIG. 6A) (H1975-HGF) | tumor volume over time (FIG. 6B) (H1975-HGF) | cMET pathway signaling (HGF/cMET pathway) | tumor response (H1975) | tumor response (H1975-NRP1 OE) | anti-tumor activity (H1975-OR) | cMET degradation (HGF/cMET pathway) |
| --- | --- | --- | --- | --- | --- | --- | --- |
| Panitumumab: fully humanized anti-EGFR monoclonal antibody, which binds to EGFR and block the EGFR signaling | exhibited resistance | – | – | – | – | – | – |
| C[C@@H](Oc1cc(-c2cnn(C3CCNCC3)c2)cnc1N)c1c(Cl)ccc(F)c1Cl [Crizotinib] | – | limited efficacy | blocked cMET pathway signaling | – | – | – | – |
| C=CC(=O)Nc1cc(Nc2nccc(-c3cn(C)c4ccccc34)n2)c(OC)cc1N(C)CCN(C)C [Osimertinib, N-(2-{2-dimethylaminoethyl-methylamino}-4-methoxy-5-{[4-(1-methylindol-3-yl)pyrindin-2-yl]amino}phenyl)prop-2-enamide mesylate salt] | exhibited resistance | did not prevent tumor growth over time | – | strong and persistent tumor regression | significant tumor progression | did not show anti-tumor activity | – |
| B1 | – | – | blocked cMET pathway signaling | – | – | – | led to cMET degradation |
